Patent US7022315B2, “Administration of a thiol-based chemoprotectant compound” (Oregon Health & Science University, priority 2000, dated 2006)
Converted amounts (≈) assume the structure as drawn. Like-named read-outs stand apart in the source and are kept apart here.

Columns and labels:
LX-1 SCLC cells [1] = assay: cells; conditions: for EC50 / Chemoprotective agent EC50: average ± pooled sd of two experiments
Procedure: Cytotoxicity was assessed in cultured LX-1 SCLC cells, 1×10^4 cells per well in 96 well plates, using the WST colorometric assay. […] Chemoprotectant was added at the indicated concentration of N-acetylcysteine shown in FIG. 3A or D-methionine shown in FIG. 3B either alone (n) or immediately following chemotherapy. Data are expressed as the percentage of live cells compared to untreated control samples (without chemotherapy) and each point represents the mean±standard deviation of 4 wells.
The dose/response for rescue from chemotherapy cytotoxicity was evaluated for four different small molecular weight sulfur containing chemoprotectants.
Chemotherapy agents were fixed at the 90% lethal dose for each agent. Each EC50 measurement comprised 6 concentrations with 4 wells per concentration, and each dose response was performed twice for each protectant. EC50 concentrations, in μg/ml are reported as the average±pooled standard deviation for two independent experiments.

LX-1 SCLC cells [2] = test system: LX-1 SCLC cells
Procedure: Chemotherapy cytotoxicity was assessed in cultured LX-1 SCLC cells (1×10^4 cells/well in 96 well plates) using the WST colorometric assay. […] Cells then received either no protectant (open bars), or sodium thiosulfate, 2000 μg/ml, added immediately (striped bars), 2 hours (black bars) or 4 hours (cross hatched bars) after chemotherapy. Data are expressed as the percentage of live cells compared to control samples (without chemotherapy) and each point represents the mean±standard deviation of 4 wells.
The thiol chemoprotectants were added either concurrently with chemotherapy or up to 8 hours after chemotherapy.

GM294 human fibroblasts = assay: Cytoenhancement and chemoprotection in fibroblasts, WST assay; type: cell-based
Procedure: Cytotoxicity was assessed in GM294 human fibroblasts, 1×10^4 cells per well in 96 well plates, using the WST colorometric assay. […] Data are expressed as the percentage of live cells compared to control samples (without chemotherapy) and each point represents the mean±s.d. of 4 wells.

[3] = test system: Caspase-2 activity in B.5 LX-1 cells; assay: Caspase-2 enzymatic activity (apoptosis); type: cell-based; conditions: for increase in caspase activity: variable between experiments
Procedure: (§1) FIGS. 7A and 7B show the effect of cytoenhancement and chemoprotection on apoptosis. […] Apoptosis was assessed in cultured LX-1 SCLC cells pretreated for 18 hours with or without 100 μM BSO. The experimental conditions were no addition (open bars), melphalan (10 μg/ml, striped bars) or melphalan (10 μg/ml) plus N-acetylcysteine (1000 μg/ml) (cross hatched bars) for 20 h prior to harvest. Caspase-2 activity is expressed as percentage activity in untreated control samples (mean±standard deviation, n=3). TUNEL staining is expressed as the percentage of cells showing positive staining.
(§2) Apoptosis was evaluated by measuring Caspase-2 enzymatic activity and by in situ TUNEL staining. […] The increase in caspase activity was variable between experiments and ranged from 50–100% at 7–8 h to 250–600% at 20–24 h after treatment with melphalan. […] In the experiment shown in FIG. 7B, TUNEL staining after melphalan treatment was positive in 29 of 3643 cells, compared to 7 of 4395 cells in the untreated control, and BSO treatment prior to melphalan increased the positive staining to 800 of 1699 cells. […] In both assays, activity was maximal with low doses of melphalan, or with a 1 hour pulse treatment with the doses used in the cytotoxicity assays.
Samples of the cells used in the caspase and TUNEL assays were also evaluated for membrane permeability by trypan blue exclusion.

cultured tumor cells = assay: Paclitaxel cytotoxicity with BSO and NAC (WST); type: cell-based
B.5 LX-1 cells [4] = assay: cells; conditions: for EC50: Homo sapiens
Procedure: FIGS. 4A and 4B show cytoenhancement and chemoprotection. […] Cytotoxicity was assessed in cultured LX-1 SCLC cells, 1×10^4 cells per well in 96 well plates, using the WST colorometric assay. BSO cytoenhancement consisted of preincubation at 100 μM BSO for 18 hours. The chemoprotective agent was added immediately after chemotherapy. The experimental conditions were dose/responses for chemotherapy (carboplatin or etoposide phosphate) alone (m), BSO cytoenhancement ( ? ), N-acetylcysteine rescue, (1000 μg/ml N-acetylcysteine, n), or BSO cytoenhancement and N-acetylcysteine rescue (u). Data are expressed as the percentage of live cells compared to untreated control samples without chemotherapy and each point represents the mean±standard deviation of 4 wells.
The effects of BSO cytoenhancement and thiol chemoprotection on the dose/response relationships for cytotoxicity of the alkylating chemotherapeutics were evaluated in the B.5 LX-1 cells. BSO cytoenhancement consisted of preincubation with 100 μM BSO for about 18–24 hours prior to addition of chemotherapy, and rescue consisted of 1000–2000 μg/ml of thiol chemoprotectant added immediately after chemotherapy.
Cytoenhancement and chemoprotection against non-alkylating chemotherapeutic agents was also evaluated.
Half-maximal cytotoxic concentrations (EC50) are expressed as μg/ml. Each EC50 measurement comprised 6 concentrations with 4 wells per concentration, and each dose response was performed in triplicate for each chemotherapeutic agent. Data are reported as the mean±pooled standard deviation for three independent experiments. P values are shown for the reduction in EC50 by BSO treatment (*=P<0.05, **=P<0.01, ***=P<0.001).

rats = assay: Protection against chemotherapy-induced myelosuppression, nadir blood counts; type: in vivo, rat; conditions: STS alone; data not shown
Procedure: FIGS. 10A–10D show the results of tests on chemoprotection for chemotherapy-induced myelosuppression. Rats received tri-drug chemotherapy (Carboplatin 200 mg/m2, etoposide phosphate 100 mg/m2, melphalan 10 mg/m2), with (triangles, squares) or without (circles) chemoprotection. Blood counts were determined prior to chemotherapy, at the blood nadir (6 days), and in the recovery phase (9 days after treatment). Chemoprotection was with NAC (1200 mg/kg) administered via aortic infusion 30 min prior to chemotherapy (triangles) or NAC prior to chemotherapy and STS (8 g/m2) immediately after chemotherapy (squares). In FIG. 10B and FIG. 10D animals received BSO (10 mg/kg i.p.×3 d) prior to treatment with chemotherapy. […] Significant difference from the no protectant groups were determined by Wilcoxon/Kruskal-Walliis rank sums tests (*p<0.05, **p<0.01).
Chemoprotection against chemotherapy-induced bone marrow toxicity was determined in BSO treated and untreated animals given i.a. carboplatin, etoposide phosphate, and melphalan. NAC with or without STS was administered either about 30 minutes prior to chemotherapy or immediately after chemotherapy, and was administered either i.v. or by aortic infusion.

[5] = cited from earlier work
B.5 LX-1 cells [6] = assay: In situ TUNEL staining for DNA fragmentation; type: cell-based
Procedure: as §1, §2

[7] = read-out: Chemoprotective agent EC50, protection against carboplatin 200 μg/ml (about 90% lethal dose)
[8] = read-out: Chemoprotective agent EC50, protection against cisplatin 15 μg/ml (about 90% lethal dose)

CSCC[C@@H](N)C(=O)O [D-methionine]
EC50 (LX-1 SCLC cells [1]; [7]): 379 ± 123 µg/mL (≈ 2540 µM) | EC50 (LX-1 SCLC cells [1]; [8]): 140 ± 41 µg/mL (≈ 938 µM) | reduction of protection against cisplatin compared to simultaneous addition (LX-1 SCLC cells [2]; delayed for 2 hours after cisplatin): 41.2±10.2% | reduction of protection against cisplatin compared to simultaneous addition (LX-1 SCLC cells [2]; delayed to 4 hours after cisplatin): 66.1±4.5% | protection against cisplatin compared to simultaneous addition (LX-1 SCLC cells [2]; pretreatment for 30 min prior to cisplatin): did not increase the amount of protection

CCCCS(=N)(=O)CCC(N)C(=O)O (stereo not drawn) [BSO, buthionine sulfoximine]
effect on toxicity of melphalan, cisplatin and carboplatin (GM294 human fibroblasts; 100 μM for 18 hours pretreatment): enhanced the toxicity of all three alkylators | effect on cisplatin- or carboplatin-induced caspase activity [3]: No significant amplification of caspase activity | effect on melphalan-induced Caspase-2 activity ([3]; BSO pretreatment, low melphalan concentrations): amplified

CC(=O)O[C@H]1C(=O)[C@@]2(C)[C@H]([C@H](OC(=O)c3ccccc3)[C@]3(O)C[C@H](OC(=O)[C@H](O)[C@@H](NC(=O)c4ccccc4)c4ccccc4)C(C)=C1C3(C)C)[C@]1(OC(C)=O)CO[C@@H]1C[C@@H]2O [paclitaxel]
dose completely cytotoxic in vitro (cultured tumor cells; cells pretreated with BSO): ≥ 5 µM | live cells (WST fluorescence) (cultured tumor cells; paclitaxel dose 5 (unit not given)): 1.274 +/− .071 | live cells (WST fluorescence) (cultured tumor cells; paclitaxel dose 20 (unit not given)): 0.771 +/− .056 | concentration at which it begins to be cytotoxic (cultured tumor cells; without BSO): 20 µM | concentration at which it is completely toxic (cultured tumor cells; without BSO): 30 µM | growth inhibitory dose (B.5 LX-1 cells [4]; not altered by BSO): approximately 10 nM

N.N.O=C([O-])C1(C(=O)[O-])CCC1.[Pt+2] [Carboplatin, carboplatin]
reduction of EC50 for cytotoxicity by BSO (B.5 LX-1 cells [4]; 100 μM BSO preincubation): 48% | Chemotherapy EC50 (cytotoxicity) (B.5 LX-1 cells [4]; Without BSO, mean ± pooled sd of three experiments): 103 ± 21 µg/mL

COc1cccc2c1C(=O)c1c(O)c3c(c(O)c1C2=O)C[C@@](O)(C(=O)CO)C[C@@H]3O[C@H]1C[C@H](N)[C@H](O)[C@H](C)O1 [doxorubicin]
BSO enhancement or N-acetylcysteine protection of the agent's cytotoxicity (B.5 LX-1 cells [4]): no enhancement or protection

O=S(O)(O)=S [STS, sodium thiosulfate]
EC50 (LX-1 SCLC cells [1]; [7]): 442 ± 203 µg/mL | EC50 (LX-1 SCLC cells [1]; [8]): 86 ± 76 µg/mL | EC50 (LX-1 SCLC cells [1]; read-out: Chemoprotective agent EC50, protection against melphalan 20 μg/ml (about 90% lethal dose)): 110 ± 78 µg/mL | protection against melphalan cytotoxicity with delayed addition (LX-1 SCLC cells [2]; melphalan 20 μg/ml, protectant delayed (2 hours for STS)): chemoprotection was reduced | protection against platinum (carboplatin, cisplatin) cytotoxicity with delayed addition (LX-1 SCLC cells [2]; protectant delayed (up to 4 hours for STS)): still protective | bone marrow protection (rats): did not give consistent bone marrow protection | plasma half life ([5]; after a bolus injection): about 17 minutes | brain levels ([5]; i.v. administration): < 5 % of blood

N[C@@H](Cc1ccc(N(CCCl)CCCl)cc1)C(=O)O [Melphalan, melphalan]
reduction of EC50 for cytotoxicity by BSO (B.5 LX-1 cells [4]): 53% | EC50 (B.5 LX-1 cells [4]; LX-1, read-out: Chemotherapy EC50 (cytotoxicity), + BSO (100 μM preincubation 18–24 hours), mean ± pooled sd of three experiments): 6.4 ± 0.6 µg/mL | EC50 (B.5 LX-1 cells [4]; LX-1, read-out: Chemotherapy EC50 (cytotoxicity), Without BSO, mean ± pooled sd of three experiments): 13.8 ± 1.8 µg/mL (≈ 45.2 µM) | increase in caspase activity ([3]; 7–8 h after treatment): 50–100% | increase in caspase activity ([3]; 20–24 h after treatment): 250–600% | TUNEL staining positive cells (B.5 LX-1 cells [6]; BSO treatment prior to melphalan): 800 of 1699 | TUNEL staining positive cells (B.5 LX-1 cells [6]; melphalan treatment without BSO): 29 of 3643

COc1cc([C@@H]2c3cc4c(cc3[C@@H](O[C@@H]3O[C@@H]5CO[C@@H](C)O[C@H]5[C@H](O)[C@H]3O)[C@H]3COC(=O)[C@H]23)OCO4)cc(OC)c1OP(=O)(O)O [etoposide phosphate]
BSO enhancement or N-acetylcysteine protection of the agent's cytotoxicity (B.5 LX-1 cells [4]): BSO did not increase the cytotoxicity of etoposide phosphate, nor did N-acetylcysteine decrease the cytotoxicity | effect of BSO and N-acetylcysteine on the agent's cytotoxicity (GM294 human fibroblasts): neither BSO cytoenhancement nor N-acetylcysteine chemoprotection affected the cytotoxicity

CN(Cc1cnc2nc(N)nc(N)c2n1)c1ccc(C(=O)N[C@@H](CCC(=O)O)C(=O)O)cc1 [methotrexate]
BSO enhancement or N-acetylcysteine protection of the agent's cytotoxicity (B.5 LX-1 cells [4]): no enhancement or protection

CCOC(=O)CNC(=O)[C@H](CS)NC(=O)CC[C@H](N)C(=O)O [Glutathione ethyl ester]
relative effectiveness among the thiol agents tested (LX-1 SCLC cells [1]; on a μg/ml basis): least effective | Chemoprotective agent EC50 (LX-1 SCLC cells [1]; protection against carboplatin 200 μg/ml (about 90% lethal dose)): 995 ± 48 µg/mL | Chemoprotective agent EC50 (LX-1 SCLC cells [1]; protection against cisplatin 15 μg/ml (about 90% lethal dose)): 530 ± 30 µg/mL | Chemoprotective agent EC50 (LX-1 SCLC cells [1]; protection against melphalan 20 μg/ml (about 90% lethal dose)): 303 ± 124 µg/mL
